Reference: patent publication US9814758B2, “Inhibitors of apoptosis and uses thereof” (CENTRE NATIONAL DE LA RECHERCHE SCIENTIFIQUE-CNRS, priority 2010, dated 2017)
Non-standard residues stand in square brackets, D forms with d. Residues, ends and D or L forms follow the SMILES beside them. No end group written: not given here. Ahx = NCCCCCC(=O)O

Columns and labels:
[1] = Stability in 20% mouse serum (reverse-phase HPLC); assay type: in vitro ADME; conditions: 37° C.; for remaining at 2 h: 2 h incubation, read-out: peptide still intact; for peptide degradation: after 24 hours
Description: FIG. 3: Evaluation of Tat-DAXXp and Pip2b-DAXXp protease ability. (A) Stability measurements of Tat-DAXXp and Pip2b-DAXXp conjugates in fetal bovine serum (FBS, BioWest) and (B) freshly prepared mouse serum (MS). Peptides were incubated with 20% serum at 37° C. for 0 h, 1 h, 2 h, 4 h, 8 h, 24 h, and 48 h, and 50 μl of the incubation mixture was precipitated in 100 μl 10% dichloroacetic acid (DCA) in H2O/CH3CN (50/50). The samples were mixed and kept at −20° C. The precipitated serum proteins were separated by centrifugation (14,000 rpm, 10 minutes) and the supernatant was analyzed by reverse-phase HPLC (measurement of the peak area in mV*sec). n≧2 for each condition.

[2] = system: C57Bl6 mice, myocardial ischemia-reperfusion; test: Myocardial ischemia-reperfusion IR60' (40 min ischemia, 60 min reperfusion); assay type: in vivo, mouse
Description: FIG. 11: In vivo experimental protocol. C57Bl6 mice underwent a surgical protocol of myocardial ischemia-reperfusion (IR). The black box represents the period of ischemia to which the mice were submitted. Infarct size or cell death measurements were performed at the end of surgery for each protocol (indicated by ↑). IR60′: 40 minutes of Ischemia, 60 minutes of Reperfusion. IR24h: 40 minutes Ischemia and 24 hours Reperfusion.
FIG. 12: Cardioprotective effects of Tat-DAXXp (1 mg/kg—IV) in mice subjected to IR60′. Infarct size (in % of area at risk) and internucleosomal DNA fragmentation determined by ELISA were quantified in mice subjected to IR60′ and treated with Tat, Tat-DAXXp or Tat-scrDAXXp (1 mg/kg) as well as with DAXXp (10 mg/kg) (intravenous injection (IV) 5 minutes before reperfusion). Means±SEM were plotted for (A): Area at risk/LV mass (left ventricle), (B): Infarct size (in % of area at risk) and (C): (I/NI ratio) corresponding to the ratio of soluble nucleosome in the ischemic portion versus the non-ischemic portion of LV tissues. Statistical analysis was performed using One-way ANOVA with Neuman-Keuls post test for multiple comparisons (GraphPad Prism software). P<0.05, P<0.01 and P<0.001 versus Tat-DAXXp were noted *, **, and *** respectively. P=ns (not significant) for P>0.05.
FIG. 13: Dose response for Tat-DAXXp and DAXXp in mice subjected to IR60′. Infarct size (in % of area at risk) and internucleosomal DNA fragmentation determined by ELISA were quantified in mice subjected to IR60′ and treated with Tat (1 mg/kg), Tat-DAXXp (0.1, 1 and 10 mg/kg) or DAXXp (0.1, 1 and 10 mg/kg) injected intravenously 5 minutes before reperfusion. Means±SEM were plotted for (A): Area at risk/LV mass (left ventricle), (B): Infarct size (in % of area at risk) and (C): (I/NI ratio) corresponding to the ratio of soluble nucleosome in the ischemic versus the non-ischemic portion of LV tissues.
In a second step, the cardioprotective effects of DAXXp were evaluated in an in vivo model of myocardial ischemia-reperfusion. Acute myocardial ischemia and reperfusion were performed in C57Bl6 mice subjected to a surgical model of reversible coronary occlusion. Male mice (22-28 g) were anesthetized and ventilated via a tracheal intubation using a Harvard rodent respirator. Body temperature was maintained between 36.8° C. and 37.0° C. via a thermo-regulated surgical table. The chest was opened by left lateral thoracotomy and a reversible coronary artery snare occluder was placed around the left coronary artery. Mice were randomly allocated to two different surgical protocols of myocardial ischemia-reperfusion (FIG. 11). At the end of reperfusion, the artery was re-occluded and phtalocyanine blue dye was injected into the left ventricle cavity and allowed to perfuse the non-ischemic portions of the myocardium. To determine the effect of DAXXp on myocardial infarct size, peptides were administered intravenously (caudal vein) 5 minutes before reperfusion during the surgical protocol of ischemia-reperfusion. The control groups were treated with Tat or Pip2b peptide (for CPP alone). The dose of 1 mg/kg was chosen (μmolar range) and dose responses for 0.1 and 10 mg/kg were also tested.
At the end of reperfusion, mice were re-anaesthetized, the coronary ligature definitively tightened, the blue dye injected and the harvested left ventricles were dedicated to infarct size (TTC method, Schwartz et al, J Thromb. Thromb., 2000; 10: 181-187) or DNA fragmentation measurements (Cell death detection ELISA^PLUS kit, Roche Diagnostics) in order to investigate the cardioprotective effects against ischemia-reperfusion injuries.

kidney graft = test: Cold ischemia/reperfusion injury during kidney transplantation; assay type: in vivo, rat; conditions: preliminary
Text: FIG. 17: Preliminary data on cold ischemia/reperfusion injury during kidney transplantation. Brain death and prolonged cold ischemia are major contributors to the poorer long-term outcome of transplants from deceased donor kidney transplants, with an even higher impact if expanded criteria donors (‘marginal organs’) are used. Targeting ischemia-reperfusion (IR) injury-related intragraft inflammation is an attractive concept to improve the outcome of those grafts. (A) Workflow of cold ischemia/reperfusion during kidney transplantation in rat. After a 24 h cold ischemia, the kidney graft was transplanted orthotopically into male LEW recipients using standard microsurgical techniques. Peptides were injected immediately after reperfusion in a single i.v injection at 1 mg/kg. Three days after transplantation, grafts were harvested for RT-PCR analysis (n=3). (B) Total RNA was reverse transcribed into cDNA and subjected to quantitative real-time RT-PCR utilizing the GENEAMP® 5700 Sequence Detection System (Applied Biosystems, Weiterstadt, Germany). The TAQMAN®-PCR reactions for ICAM-1, IFN-γ, TNF-α, interleukin (IL)-6 and bcl-2 (synthesized by Metabion, Martinsried, Germany) were performed in a final volume of 25 μl.

[3] = 1 mg/kg single i.v. after reperfusion, kidney graft 3 days after transplantation, RT-PCR

Compound | remaining at 2 h [1] [%] | peptide degradation [1] | specific DNA fragmentation in left ventricles versus Tat-injected mice ([2]; 1 mg/kg IV, IR60') | decrease of infarct size versus Tat peptide alone ([2]; 1 mg/kg intravenously 5 min before reperfusion, after 1 hour-reperfusion, p<0.01) [%] | dose of maximal effect ([2]; dose response 0.1, 1 and 10 mg/kg IV, FIG. 13) [mg/kg] | mRNA expression of ICAM-1 (kidney graft; [3]) | mRNA expression of IFN-γ (kidney graft; [3]) | protection from ischemia-reperfusion injuries (kidney graft; 1 mg/kg, renal transplantation model (Rat)) | decrease of infarct size ([2]; 10 mg/kg injected alone (without CPP)) | cardioprotection (infarct size, DNA fragmentation) ([2]; IR60', data not shown)
GRKKRRQRRRPPQKKSRKEKKQTGSGPLG-NH2 [Tat-DAXXp, GRKKRRQRRRPPQ-KKSRKEKKQTGSGPLG-NH2] | > 70 | all the peptide are degraded | drastic decrease | 53.4 | 1 | reduction in mRNA expression | reduction in mRNA expression | able to protect from ischemia-reperfusion injuries |  | 
KKSRKEKKQTGSGPLG-NH2 [DAXXp, KKSRKEKKQTGSGPLG-NH2] |  |  |  |  |  |  |  |  | to the same extent than Tat-DAXXp | 
CC[C@H](C)[C@H](NC(=O)[C@H](Cc1c[nH]cn1)NC(=O)[C@@H](NC(=O)[C@H](CCCNC(=N)N)NC(=O)CCCCCNC(=O)[C@H](CCCNC(=N)N)NC(=O)[C@H](CCCNC(=N)N)NC(=O)CCCCCNC(=O)[C@H](CCCNC(=N)N)NC(=O)[C@H](CCCNC(=N)N)NC(=O)CCCCCNC(=O)[C@@H](N)CCCNC(=N)N)[C@@H](C)CC)C(=O)N[C@@H](CC(C)C)C(=O)N[C@@H](Cc1ccccc1)C(=O)N[C@@H](CCC(N)=O)C(=O)N[C@@H](CC(N)=O)C(=O)N[C@H](CCCNC(=N)N)C(=O)N[C@@H](CCCNC(=N)N)C(=O)N[C@@H](CCSC)C(=O)N[C@@H](CCCCN)C(=O)N[C@@H](Cc1c[nH]c2ccccc12)C(=O)N[C@@H](Cc1c[nH]cn1)C(=O)N[C@@H](CCCCN)C(=O)N[C@@H](CCCCN)C(=O)N[C@@H](CCCCN)C(=O)N[C@@H](CO)C(=O)N[C@@H](CCCNC(=N)N)C(=O)N[C@@H](CCCCN)C(=O)N[C@@H](CCC(=O)O)C(=O)N[C@@H](CCCCN)C(=O)N[C@@H](CCCCN)C(=O)N[C@@H](CCC(N)=O)C(=O)N[C@H](C(=O)NCC(=O)N[C@@H](CO)C(=O)NCC(=O)N1CCC[C@H]1C(=O)N[C@@H](CC(C)C)C(=O)NCC(N)=O)[C@@H](C)O [Pip2b-DAXXp, (RXR)3-IHILFQNrRMKWHK-KKSRKEKKQTGSGPLG-NH2] (H-R[Ahx]RR[Ahx]RR[Ahx]RIHILFQN[dR]RMKWHKKKSRKEKKQTGSGPLG-NH2; N-terminus assumed) | > 70 | all the peptide are degraded |  |  |  |  |  |  |  | not observed
